Broadly, the GI50 is the concentration giving 50% growth inhibition. A word on the TGI: it is the concentration giving total growth inhibition.

The values below come from PubChem BioAssay (NCI).

Several values for one entry are separate records, joined by “and”; a condition that tells them apart may be missing. Equal values may be shown once.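 Growth conditions: 96-well plates. Treatment: test compound, 48 hours, 5 concentrations. Analysis: linear interpolation between bracketing concentrations; unreached endpoints set to highest concentration. GI50 marks 50% less growth. TGI: total growth inhibition.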

Test systems include A498 renal; KM12 colon; NCI/ADR-RES ovarian; OVCAR-5 ovarian; RPMI-8226 leukemia; SK-MEL-2 melanoma; SK-MEL-28 melanoma; SN12C renal; U251 CNS; CAKI-1 renal.
Holding throughout (test): DTP human tumour cell line panel, 48 h

Turning to `CC[N+](CC)=c1sc2c(s1)C(c1ccc(Cl)cc1)Oc1ccc(Cl)cc1-2` (centres undefined), the GI50 was 3.37 µM in the assay with A498 renal; 0.456 µM in the assay with KM12 colon; 21.6 µM with NCI/ADR-RES ovarian; 2.32 µM in the assay on OVCAR-5 ovarian; 1.99 µM with RPMI-8226 leukemia; 1.03 µM in the assay on SK-MEL-2 melanoma. For the same compound, the GI50 in the assay on SK-MEL-28 melanoma is 1.32 µM; with SN12C renal, 1.33 µM; with U251 CNS, 0.374 µM. Further, the TGI in the assay with A498 renal came out at 10.2 µM; in the assay with KM12 colon, 1.91 µM; in the assay with NCI/ADR-RES ovarian it was 67.2 µM; with OVCAR-5 ovarian, 6.11 µM; in the assay with RPMI-8226 leukemia it was 7.5 µM; with SK-MEL-2 melanoma, 2.81 µM. Moreover, the results for the TGI in the assay with SK-MEL-28 melanoma, in the assay on SN12C renal and in the assay on U251 CNS were 2.82 µM, 3.33 µM and 1.37 µM, respectively.

As for `Cc1nc(SCC(=O)Nc2nc(-c3ccc(Cl)cc3)cs2)n(Nc2ccccc2)c1C`, the GI50 in the assay with A498 renal is 2.24 µM; in the assay with CAKI-1 renal, 3.93 µM; in the assay with KM12 colon, 2.95 µM; in the assay on NCI/ADR-RES ovarian it was 2.6 µM; in the assay on OVCAR-5 ovarian it was 2.65 µM; in the assay with RPMI-8226 leukemia, 3.55 µM. The GI50 in the assay with SK-MEL-2 melanoma was 10.1 µM; in the assay on SK-MEL-28 melanoma, 10.1 µM; in the assay on SN12C renal, 2.38 µM; with U251 CNS it was 3.13 µM. The TGI in the assay with A498 renal was 10.5 µM; in the assay on CAKI-1 renal, 22.6 µM; in the assay with KM12 colon it was 14 µM; with NCI/ADR-RES ovarian, 7.18 µM; with OVCAR-5 ovarian it was 13.5 µM; in the assay with RPMI-8226 leukemia, more than 100 µM. In addition, the TGI with SK-MEL-2 melanoma is 27.6 µM; in the assay on SK-MEL-28 melanoma, 24.6 µM; in the assay with SN12C renal, 10.1 µM; in the assay with U251 CNS it was 13 µM.

In the case of `CC(=O)OCC1OC(n2c(-c3ccc(Cl)cc3)ccc(C#N)c2=S)C(OC(C)=O)C(OC(C)=O)C1OC(C)=O` (centres undefined), the GI50 in the assay on A498 renal was 24.9 µM and 73.8 µM; with CAKI-1 renal it was more than 100 µM; with SK-MEL-2 melanoma it was 16 µM and 87 µM; with U251 CNS, 10.4 µM and 61.4 µM. Further, the TGI was 56.1 µM and > 100 µM in the assay on A498 renal; more than 100 µM in the assay on CAKI-1 renal; more than 100 µM with KM12 colon; more than 100 µM in the assay on NCI/ADR-RES ovarian; more than 100 µM with OVCAR-5 ovarian; more than 100 µM in the assay with RPMI-8226 leukemia. The TGI in the assay on SK-MEL-2 melanoma is 45.6 µM and > 100 µM; in the assay with SK-MEL-28 melanoma, more than 100 µM; in the assay with SN12C renal, more than 100 µM; with U251 CNS, 40 µM and > 100 µM.

For `C=C(C)C(=O)O[C@H]1C[C@@]23O[C@@H]2CCC(=C[C@H]2OC(=O)C(=C)[C@H]12)COC3O` (some centres undefined), the TGI was more than 100 µM with A498 renal; more than 100 µM in the assay with CAKI-1 renal; more than 100 µM with KM12 colon; more than 100 µM in the assay with NCI/ADR-RES ovarian; more than 100 µM in the assay with OVCAR-5 ovarian; 63 µM with RPMI-8226 leukemia. The total growth inhibition concentration (TGI) with SK-MEL-2 melanoma, in the assay with SN12C renal and in the assay on U251 CNS was more than 100 µM throughout.

`COc1cc(-c2cc3ncccc3c3nc(N)c4cccnc4c23)cc(OC)c1OC`: the GI50 in the assay with CAKI-1 renal is 0.4 µM; with KM12 colon, 0.36 µM; in the assay on NCI/ADR-RES ovarian, 0.492 µM; in the assay with OVCAR-5 ovarian, 4.98 µM; in the assay with RPMI-8226 leukemia, 0.556 µM; in the assay with SK-MEL-2 melanoma, 0.533 µM. The GI50 in the assay with SK-MEL-28 melanoma is 2.93 µM; in the assay with SN12C renal, 1.01 µM; in the assay on U251 CNS, 0.553 µM. Further, the TGI with CAKI-1 renal is 22.6 µM; in the assay on KM12 colon, 33.4 µM; in the assay with NCI/ADR-RES ovarian it was 23.4 µM; with OVCAR-5 ovarian, more than 100 µM; with RPMI-8226 leukemia, 23.9 µM; in the assay on SK-MEL-2 melanoma, 8.86 µM. Moreover, the TGI in the assay on SK-MEL-28 melanoma is more than 100 µM; with SN12C renal it was more than 100 µM; with U251 CNS, 16.9 µM.

In the case of `CCOC(=O)c1sc(-c2ccc(OS(=O)(=O)c3ccc(Br)s3)c(C=O)c2)nc1C`, the GI50 in the assay with A498 renal is 6.15 µM; with CAKI-1 renal it was 2.86 µM; in the assay with KM12 colon, 3.36 µM; with NCI/ADR-RES ovarian it was 2.96 µM; in the assay with OVCAR-5 ovarian, 10 µM; in the assay with RPMI-8226 leukemia, 1.94 µM. Also, the GI50 with SK-MEL-2 melanoma is 4.83 µM; in the assay on SK-MEL-28 melanoma it was 11.4 µM; in the assay on SN12C renal it was 3.09 µM; with U251 CNS, 2.68 µM. The TGI with A498 renal was 40.1 µM; with CAKI-1 renal, 14.5 µM; with KM12 colon it was 11.6 µM; in the assay on NCI/ADR-RES ovarian it was 12.9 µM; in the assay with OVCAR-5 ovarian, 26.3 µM; in the assay on RPMI-8226 leukemia, 5.18 µM. The TGI was 27.8 µM in the assay on SK-MEL-2 melanoma, 33.4 µM with SK-MEL-28 melanoma, 10.7 µM with SN12C renal and 10.3 µM with U251 CNS.

For `COc1cc(/C=C2\C(=O)Nc3cc(C)c(O)cc32)cc(OC)c1OC`, the GI50 in the assay on A498 renal was 8.5 µM; in the assay with CAKI-1 renal, 2.98 µM; in the assay on KM12 colon it was 2.62 µM; in the assay on NCI/ADR-RES ovarian it was 5.01 µM; in the assay with OVCAR-5 ovarian, 13.5 µM; in the assay with RPMI-8226 leukemia, 1.47 µM. Further, the GI50 in the assay on SK-MEL-2 melanoma was 2.97 µM; in the assay on SK-MEL-28 melanoma, 7.59 µM; in the assay on SN12C renal it was 6.07 µM; in the assay with U251 CNS, 3.54 µM. Also, the TGI is 25.4 µM with A498 renal; 9.66 µM in the assay on CAKI-1 renal; 11.4 µM with KM12 colon; 48.1 µM in the assay on NCI/ADR-RES ovarian; 30.4 µM with OVCAR-5 ovarian; 4.41 µM with RPMI-8226 leukemia. Moreover, the TGI was 14.5 µM in the assay with SK-MEL-2 melanoma, 23 µM in the assay on SK-MEL-28 melanoma, 23.1 µM in the assay with SN12C renal and 16.1 µM in the assay with U251 CNS.

Consider `O=C1c2ccccc2-c2c1c1c(=O)[nH]c3ccccc3c1n2Cc1ccccc1`, for which the GI50 with A498 renal was 21.1 µM; in the assay with CAKI-1 renal, 33.5 µM; in the assay on KM12 colon it was more than 100 µM; in the assay on NCI/ADR-RES ovarian, 52.6 µM; in the assay with OVCAR-5 ovarian it was 49.5 µM; in the assay on RPMI-8226 leukemia, more than 100 µM. The GI50 in the assay with SK-MEL-2 melanoma is more than 100 µM; with SK-MEL-28 melanoma it was 84.7 µM; in the assay on SN12C renal, 35.9 µM; in the assay on U251 CNS it was 16.6 µM. In addition, the TGI with A498 renal was 50.6 µM; in the assay on CAKI-1 renal, more than 100 µM; in the assay on KM12 colon it was more than 100 µM; in the assay with NCI/ADR-RES ovarian, more than 100 µM; in the assay with OVCAR-5 ovarian, more than 100 µM; with RPMI-8226 leukemia, more than 100 µM. Moreover, the TGI with SK-MEL-2 melanoma is more than 100 µM; with SK-MEL-28 melanoma it was more than 100 µM; with SN12C renal, more than 100 µM; with U251 CNS, 34.1 µM.
